Laboratory results: the supplement of paper PMC4649846
Values joined by “and” are separate entries in the source; they are usually repeats but may differ in a detail not shown here. Identical values can stand only once.

Tests used:
MDA-MB-231 [1] = assay: drug sensitivity score (DSS); higher = more sensitive; extreme values may be limits of the assay; settings: incubation time: 72 h
How it was run: (§1)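 For the IC50 and drug sensitivity score, logistic dose–response curves were fitted in Dotmatics Studies. The score compares curve area with a reference area and is normalised by log of top response. Input data were CellTiter-Blue fluorescence readings from MDA-MB-231 cells, transfected a day earlier with BRCA1 or non-targeting control siRNA, that had spent 72 h at 37 °C and 5% CO2 at 4000 cells per well in 384-well plates with compounds at 5 concentrations.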

MDA-MB-231 [2] = settings: incubation time: 72 h
How it was run: as §1

[3] = siRNA: siControl (non-targeting)

Structure (SMILES) | drug sensitivity score (MDA-MB-231 [1]; siRNA: siBRCA1) | drug sensitivity score (MDA-MB-231 [1]; [3]) | IC50 of cell viability (MDA-MB-231 [2]; siRNA: siBRCA1) [nM] | IC50 of cell viability (MDA-MB-231 [2]; [3])
CC[C@H](CO)Nc1nc(NCc2ccccc2)c2ncn(C(C)C)c2n1 [Roscovitine] | 2.37 | 0 | > 4170 | > 4170 nM
CCc1c2c(nc3ccc(OC(=O)N4CCC(N5CCCCC5)CC4)cc13)-c1cc3c(c(=O)n1C2)COC(=O)[C@]3(O)CC [Irinotecan] | 6.18 | 3.11 | 760 | 576 nM
CC(=O)O[C@@]12CO[C@@H]1C[C@H](O)[C@@]1(C)C(=O)[C@H](O)C3=C(C)[C@@H](OC(=O)[C@H](O)[C@@H](NC(=O)OC(C)(C)C)c4ccccc4)C[C@@](O)([C@@H](OC(=O)c4ccccc4)[C@H]21)C3(C)C [Docetaxel] | 32.7 and 31.2 | 33.3 and 33.8 | 2.71 | 1.57 nM and 1.83 nM
CC(=O)Nc1ccc(C(=O)Nc2ccccc2N)cc1 [CI-994] | 0 | 2.63 | > 4170 | 865 nM
Nc1nc(F)nc2c1ncn2[C@@H]1O[C@H](CO)[C@@H](O)[C@@H]1O [Fludarabine] | 0 | 3.39 | > 4170 | 333 nM
CN1CCN(c2ccc3nc(-c4c(N)c5c(F)cccc5[nH]c4=O)[nH]c3c2)CC1 [Dovitinib] | 0 | 0 | > 4170 | > 4170 nM
CC(C)(C#N)c1cc(Cn2cncn2)cc(C(C)(C)C#N)c1 [Anastrozole] | 0 | 0 | > 4170 | > 4170 nM
Cc1ccc(-c2cc(C(F)(F)F)nn2-c2ccc(S(N)(=O)=O)cc2)cc1 [Celecoxib] | 3.29 | 0 | 1350 | > 4170 nM
